From patent US9890152B2 (Genentech, Inc., priority 2012, dated 2018) come the findings set out here.

Molecules are shown by their SMILES. pEC50, pKi: −log10 of the molar value.

The target in assay [1] is T1, phosphor-EGFR in H1975(L585R/T790M) mutant EGFR expressing cells (Homo sapiens, UniProt P00533, L858R/T790M).
T1 construct: host or cells: NCI-H1975
Put plainly: H1975 pEGFR MSD cellular assay. The assay is classed as cell-based. Particulars: NCI-H1975 cells, serum starved, 1 hour compound incubation, pEGFR Tyr1068 MSD. On the procedure:
H1975 pEGFR MSD Cellular Assays Background:
These assays are intended for determining cellular. […] (Meso Scale Discovery Catalog# N31CB-1).
All cell culture reagents were purchased from Invitrogen/Gibco. Cells are cultured at 37° C. at 5% CO2 and split as recommended by ATCC.
Cell Plating and Serum Starvation:
After six hours, culture medium is aspirated and replaced with serum-free culture medium. Cells are then incubated with the serum-free medium overnight at 37° C. and 5% CO2.
The following day, test compounds are serially diluted in dimethyl sulfoxide (DMSO) and added to cells in serum free medium (final DMSO concentration 0.5%). Assay plates are then incubated for 1 hour at 37° C. and 5% CO2. Following 1 hour of compound incubation cells are then lysed and processed as per the MSD pEGFR assay kit protocol. Cell lysates are added to assay plates pre-coated with antibodies against phosphorylated EGFR. Phosphorylated EGFR in samples are allowed to bind to the capture antibodies overnight at 4° C. The detection antibody (anti-total EGFR, labeled with an electrochemiluminescent SULFO-TAG) is added to the bound lysate and incubated for 1 hour at room temperature. The MSD Read Buffer is added such that when a voltage is applied to the plate electrodes, the labels bound to the electrode surface emit light. The MSD Sector Instrument measures the intensity of the light, and quantitatively measures the amount of phosphorylated-EGFR in the sample. Percent inhibition of EGFR phosphorylation by varying concentrations of test compounds is calculated relative to untreated controls. EC50 values are calculated using the 4 parameter logistic nonlinear regression dose-response model.

The target in assay [2] is T2, EGFR del746-750 T790M (Homo sapiens, UniProt P00533, DEL746-750/T790M).
T2 construct: purchased Carna Biosciences 08-528
T2 sequence (P00533 with tags, fused parts or gaps DEL746-750/T790M limits assumed): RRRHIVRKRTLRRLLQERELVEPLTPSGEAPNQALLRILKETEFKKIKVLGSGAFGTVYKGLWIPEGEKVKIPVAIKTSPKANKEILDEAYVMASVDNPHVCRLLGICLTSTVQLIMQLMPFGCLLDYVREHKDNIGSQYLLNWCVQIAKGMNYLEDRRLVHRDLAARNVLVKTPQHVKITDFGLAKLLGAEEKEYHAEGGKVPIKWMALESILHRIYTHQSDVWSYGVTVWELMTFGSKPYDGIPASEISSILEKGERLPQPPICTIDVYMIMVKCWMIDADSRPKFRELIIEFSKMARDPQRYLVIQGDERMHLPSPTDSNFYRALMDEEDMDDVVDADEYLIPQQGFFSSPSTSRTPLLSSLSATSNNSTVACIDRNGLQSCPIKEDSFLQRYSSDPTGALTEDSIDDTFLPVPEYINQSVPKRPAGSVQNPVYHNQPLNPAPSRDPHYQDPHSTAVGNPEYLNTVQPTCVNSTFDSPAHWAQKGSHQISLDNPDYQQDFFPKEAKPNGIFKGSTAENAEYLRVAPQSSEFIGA
Put plainly: EGFR del746-750 T790M biochemical assay (Caliper mobility shift). The settings on record: 5 μM ATP, 30 min, room temperature; apparent Ki (Morrison) converted by Cheng-Prusoff, Km of ATP 2.1 μM; read-out: EGFR(T790M/d746-750) Ki.

T1 sequence (P00533 25-1210 T790M/L858R): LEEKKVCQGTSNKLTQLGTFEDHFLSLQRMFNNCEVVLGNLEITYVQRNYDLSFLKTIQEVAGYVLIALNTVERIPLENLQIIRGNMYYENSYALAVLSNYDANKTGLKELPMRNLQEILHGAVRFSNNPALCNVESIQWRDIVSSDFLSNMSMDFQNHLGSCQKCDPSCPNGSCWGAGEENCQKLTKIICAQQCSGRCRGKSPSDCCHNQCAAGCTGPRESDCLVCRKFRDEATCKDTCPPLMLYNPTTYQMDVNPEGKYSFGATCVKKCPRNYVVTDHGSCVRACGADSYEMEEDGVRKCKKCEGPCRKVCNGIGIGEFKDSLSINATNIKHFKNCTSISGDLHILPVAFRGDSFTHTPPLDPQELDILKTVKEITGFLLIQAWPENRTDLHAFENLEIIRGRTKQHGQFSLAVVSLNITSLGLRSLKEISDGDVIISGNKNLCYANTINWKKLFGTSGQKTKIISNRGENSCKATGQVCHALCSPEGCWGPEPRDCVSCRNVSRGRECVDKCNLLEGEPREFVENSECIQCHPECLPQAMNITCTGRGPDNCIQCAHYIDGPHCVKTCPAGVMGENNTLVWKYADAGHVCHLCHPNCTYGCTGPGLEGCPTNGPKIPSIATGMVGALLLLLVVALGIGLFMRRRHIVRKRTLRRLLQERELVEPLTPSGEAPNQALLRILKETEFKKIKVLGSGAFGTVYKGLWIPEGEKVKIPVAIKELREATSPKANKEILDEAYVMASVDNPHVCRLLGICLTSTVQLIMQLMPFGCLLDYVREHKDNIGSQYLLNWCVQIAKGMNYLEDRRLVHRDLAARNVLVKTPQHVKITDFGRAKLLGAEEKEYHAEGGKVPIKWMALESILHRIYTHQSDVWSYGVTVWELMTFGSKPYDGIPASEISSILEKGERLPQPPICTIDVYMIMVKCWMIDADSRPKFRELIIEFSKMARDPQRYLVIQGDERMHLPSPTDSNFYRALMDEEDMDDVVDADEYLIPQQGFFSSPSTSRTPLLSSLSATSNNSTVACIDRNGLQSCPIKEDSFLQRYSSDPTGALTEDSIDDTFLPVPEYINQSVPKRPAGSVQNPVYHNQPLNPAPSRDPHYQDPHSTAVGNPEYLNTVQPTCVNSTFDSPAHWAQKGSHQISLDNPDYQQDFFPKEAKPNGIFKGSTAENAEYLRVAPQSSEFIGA

Turning to `CCNC(=O)c1cn(C(C)C)c2cc(Nc3ccnc(N4CCC(OC)CC4)n3)ncc12` [Example 57, N-Ethyl-1-isopropyl-6-((2-(4-methoxypiperidin-1-yl)pyrimidin-4-yl)amino)-1H-pyrrolo[3,2-c]pyridine-3-carboxamide], the pEC50 in assay [1] was 6.63. Further, in assay [2], the pKi is 7.69.

On to `CC(C)n1c(CO)nc2cnc(Nc3ccnc(N4C[C@H]5CC[C@@H](C4)[C@H]5O)n3)cc21` [Example 433, (1R,5S,8r)-3-(4-((2-(hydroxymethyl)-1-isopropyl-1H-imidazo[4,5-c]pyridin-6-yl)amino)pyrimidin-2-yl)-3-azabicyclo[3.2.1]octan-8-ol], for which, in assay [1], the negative logarithm of the EC50 (pEC50) was 5.66. For the same compound, the pKi in assay [2] was 7.76.

The compound `COC1CCN(c2nccc(Nc3cc4c(cn3)ncn4C3CCCC3)n2)CC1` [Example 26, (1-Cyclopentyl-1H-imidazo[4,5-c]pyridin-6-yl)-[2-(4-methoxy-piperidin-1-yl)-pyrimidin-4-yl]amine] showed a pEC50 in assay [1] of 5.92. Also, the pKi in assay [2] was 7.60.

In assay [1], `CC1(C)COc2nc3cnc(Nc4ccnc(-c5cnn(S(=O)(=O)C6CC6)c5)n4)cc3n21` [Example 280, [2-(1-Cyclopropanesulfonyl-1H-pyrazol-4-yl)-pyrimidin-4-yl]-(3,3-dimethyl-2,3-dihydro-1-oxa-3a,6,8-triazacyclopenta[a]inden-5-yl)-amine] showed a pEC50 of 5.76. Further, the pKi in assay [2] is 8.05.

On to `CNc1ncc(-c2nccc(Nc3cc4c(cn3)nc(C)n4C(C)C)n2)s1` [Example 312, (1-Isopropyl-2-methyl-1H-imidazo[4,5-c]pyridin-6-yl)-[2-(2-methylaminothiazol-5-yl)pyrimidin-4-yl]amine], for which, in assay [1], the pEC50 is 6.95. Besides, the pKi in assay [2] was 9.08.

In turn, `C[C@H](n1c([C@@H](C)O)nc2cnc(Nc3ccnc(N4CCC(O)C(F)C4)n3)cc21)C(F)(F)F` (mixture of isomers) [Example 296, cis-3-Fluoro-1-{4-[2-((R)-1-hydroxyethyl)-1-((S)-2,2,2-trifluoro-1-methylethyl)-1H-imidazo[4,5-c]pyridin-6-ylamino]pyrimidin-2-yl}piperidin-4-ol] had a pEC50 in assay [1] of 6.72. For the same compound, in assay [2], the pKi was 8.30.

In the case of `COC1CCN(c2nccc(Nc3cc4c(cn3)nc(C(F)F)n4C(C)C)n2)CC1` [Example 110, 2-(difluoromethyl)-1-isopropyl-N-(2-(4-methoxypiperidin-1-yl)pyrimidin-4-yl)-1H-imidazo[4,5-c]pyridin-6-amine], in assay [1], the pEC50 is 6.21. Further, the pKi in assay [2] is 6.84.

As to `CCC(C)n1cc(C(=O)NC2CCOCC2)c2cnc(Nc3ccnc(N4CC[C@@H](OC)[C@@H](F)C4)n3)cc21` (single isomer, unassigned) [Example 376], in assay [1], the pEC50 was 7.84. Also, in assay [2], the pKi is 8.54.

For the compound `COC1CCN(c2nccc(Nc3cc4c(cn3)c(-c3nnc(C)o3)cn4C(C)C)n2)CC1` [Example 59, 1-Isopropyl-N-(2-(4-methoxypiperidin-1-yl)pyrimidin-4-yl)-3-(5-methyl-1,3,4-oxadiazol-2-yl)-1H-pyrrolo[3,2-c]pyridin-6-amine], the pEC50 in assay [1] is 6.23. The pKi in assay [2] was 7.54.

For `CC(C)n1cc(C(=O)NC2CCOCC2)c2cnc(Nc3ccnc(-c4cnn(S(=O)(=O)C5CC5)c4)n3)cc21` [Example 396], the pEC50 in assay [1] is 7.11. Moreover, the pKi in assay [2] is 8.83.

On to `CC(=O)Nc1cn(C(C)C)c2cc(Nc3ccnc(-c4cnn(S(=O)(=O)C5CC5)c4)n3)ncc12` [Example 327, N-(6-((2-(1-(Cyclopropylsulfonyl)-1H-pyrazol-4-yl)pyrimidin-4-yl)amino)-1-isopropyl-1H-pyrrolo[3,2-c]pyridin-3-yl)acetamide], for which the pEC50 in assay [1] was 6.98. In addition, the pKi in assay [2] was 9.28.

Regarding `CCNc1ncc(-c2nccc(Nc3cc4c(cn3)nc(C)n4C(C)C)n2)s1` [Example 295, [2-(2-Ethylaminothiazol-5-yl)pyrimidin-4-yl](1-isopropyl-2-methyl-1H-imidazo[4,5-c]pyridin-6-yl)amine], the pEC50 in assay [1] was 7.09. Besides, the pKi in assay [2] was 8.75.

`CCNC(=O)c1cn(C(C)CC)c2cc(Nc3ccnc(N4CC[C@@H](O)[C@@H](F)C4)n3)ncc12` (single isomer, unassigned) [Example 369] had a pEC50 in assay [1] of 6.62. Moreover, the pKi in assay [2] was 8.26.

Take `CC(C)n1cc(-c2cnn(CCO)c2)c2cnc(Nc3ccnc(-c4cnn(S(=O)(=O)C5CC5)c4)n3)cc21` [Example 393, 2-(4-(6-((2-(1-(cyclopropylsulfonyl)-1H-pyrazol-4-yl)pyrimidin-4-yl)amino)-1-isopropyl-1H-pyrrolo[3,2-c]pyridin-3-yl)-1H-pyrazol-1-yl)ethanol]: the pEC50 in assay [1] was 7.96. Further, in assay [2], the pKi was 8.95.

In assay [1], `COC1CCN(c2nccc(Nc3cc4c(cn3)c(C(N)=O)cn4C(C)C)n2)CC1` [Example 115, 1-isopropyl-6-((2-(4-methoxypiperidin-1-yl)pyrimidin-4-yl)amino)-1H-pyrrolo[3,2-c]pyridine-3-carboxamide] gave a pEC50 of 6.15. Besides, in assay [2], the pKi was 7.55.

In the case of `CCC(C)n1cc(C(=O)NC2CCOCC2)c2cnc(Nc3ccnc(N4CCC(O)C(C)(C)C4)n3)cc21` (mixture of isomers) [Example 383, 1-(sec-butyl)-6-((2-(4-hydroxy-3,3-dimethylpiperidin-1-yl)pyrimidin-4-yl)amino)-N-(tetrahydro-2H-pyran-4-yl)-1H-pyrrolo[3,2-c]pyridine-3-carboxamide], in assay [1], the pEC50 is 7.46. Also, the pKi in assay [2] is 8.55.

As to `COC1CCN(c2nccc(Nc3cc4c(cn3)nc([C@@H](C)O)n4[C@@H](C)C(F)(F)F)n2)CC1F` (stereo partly drawn) [Example 543, (R)-1-[6-[2-(3-Fluoro-4-methoxypiperidin-1-yl)-pyrimidin-4-ylamino]-1-((S)-2,2,2-trifluoro-1-methyl-ethyl)-1H-imidazo[4,5-c]pyridin-2-yl]ethanol], the pEC50 in assay [1] is 7.61. Besides, in assay [2], the pKi was 8.24.

`Cc1c(C(=O)NC2CCOCC2)c2cnc(Nc3ccnc(-c4cnn(S(=O)(=O)C5CC5)c4)n3)cc2n1C(C)C` [Example 335, 6-((2-(1-(Cyclopropylsulfonyl)-1H-pyrazol-4-yl)pyrimidin-4-yl)amino)-1-isopropyl-2-methyl-N-(tetrahydro-2H-pyran-4-yl)-1H-pyrrolo[3,2-c]pyridine-3-carboxamide] had a pEC50 in assay [1] of 6.60. Further, the pKi in assay [2] was 8.64.

As a reminder, the pEC50 is the EC50 on a negative log10 scale, so that one unit is a factor of ten. Lower therefore signals a high EC50.
